Experiments:
[1] = Pharmacokinetics in Sprague-Dawley rats (single IV or oral dose); type: in vivo, rat
Text: For comparison purposes, a reference compound was separately characterized according to its pharmacokinetics properties except AUC in a similar manner. The reference compound (“Reference Compound 1”) was the compound of Example 188 of PCT International Patent Application Publication number WO 02/064572 A1, which is also described in PCT International Patent Application Publication number WO 02/064080 A2 in Table IVb on page 76, 5th species from the top. […] Reference Compound 1 is named 4-[6-(4-methoxy-benzylcarbamoyl)- 1 -methyl-2,4-dioxo- 1,4-dihydro-2H-pyrido[3,4-d]pyrimidin-3-ylmethyl]-benzoic acid, and has the structure drawn below: [drawing 98]

MMP-1 full-length = target: T1, MMP-1 full-length (Homo sapiens, UniProt P03956); test: Thiopeptolide substrate hydrolysis inhibition assay, MMP-1 full-length; type: biochemical; details: full-length enzyme; read-out: MMP-1FL IC50
T1 construct: have also been assayed with MMP-1 full-length
T1 sequence (P03956 100-469): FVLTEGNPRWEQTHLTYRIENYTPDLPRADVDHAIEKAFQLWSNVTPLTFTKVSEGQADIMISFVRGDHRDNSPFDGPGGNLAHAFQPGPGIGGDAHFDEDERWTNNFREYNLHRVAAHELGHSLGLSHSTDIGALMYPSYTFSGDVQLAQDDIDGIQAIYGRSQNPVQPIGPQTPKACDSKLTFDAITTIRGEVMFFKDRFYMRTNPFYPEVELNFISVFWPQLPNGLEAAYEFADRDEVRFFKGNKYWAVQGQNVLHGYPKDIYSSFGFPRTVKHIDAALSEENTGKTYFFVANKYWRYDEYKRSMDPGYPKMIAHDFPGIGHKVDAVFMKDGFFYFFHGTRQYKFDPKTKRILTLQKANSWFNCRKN
Text: (§1) The assay methods of Biological Examples 1-4 measure the amount by which a test compound reduces the hydrolysis of a thiopeptolide substrate catalyzed by a matrix metalloproteinase enzyme or catalytic domain thereof. It has been shown previously by Ye Qi-Zhuang, Hupe D., and Johnson L. (Current Medicinal Chemistry, 1996;3:407-418) that inhibitor activity against a catalytic domain of an MMP is predictive of the inhibitor activity against the respective full-length MMP enzyme. The methods described below for the inhibition of MMP-13 may also be adapted and used to determine the ability of the compounds of Formula I to inhibit other matrix metalloproteases such as MMP-1, MMP-2, MMP-3, MMP-7, MMP-8, MMP-9, MMP-12, MMP-14, MMP-17, and the like.
(§2) Thiopeptolide substrates show virtually no decomposition or hydrolysis at or below neutral pH in the absence of a matrix metalloproteinase enzyme. A typical thiopeptolide substrate commonly utilized for assays is Ac-Pro-Leu-Gly-thioester-Leu-Leu-Gly-OEt. A 100 μL assay mixture will contain 50 mM of N-2-hydroxyethylpiperazine-N′-2-ethanesulfonic acid buffer (“HEPES,” pH 7.0), 10 mM CaCl2, 100 μM thiopeptolide substrate, and 1 mM 5,5′-dithio-bis-(2-nitro-benzoic acid) (DTNB). […] The change in absorbance at 405 nm is monitored on a Thermo Max microplate reader (molecular Devices, Menlo Park, Calif.) at room temperature (22° C.). The calculation of the amount of hydrolysis of the thiopeptolide substrate is based on E412=13600 M^−1 cm^−1 for the DTNB-derived product 3-carboxy-4-nitrothiophenoxide. Assays are carried out with and without matrix metalloproteinase inhibitor compounds, and the amount of hydrolysis is compared for a determination of inhibitory activity of the test compounds.
(§3) Test compounds were evaluated at various concentrations in order to determine their respective IC50 values, the micromolar concentration of compound required to cause a 50% inhibition of catalytic activity of the respective enzyme.
(§4) Some representative compounds of Formula I have been evaluated for their ability to inhibit MMP-13, MMP-1FL, MMP-3CD, MMP-7FL, MMP-8FL, MMP-9FL, MMP-12CD, MMP-14CD, and/or MMP-17CD, wherein FL means full-length enzyme and CD means a catalytic domain of the full-length enzyme. Test compounds can be evaluated at various concentrations in order to determine their respective IC50 values, the micromolar concentration of compound required to cause a 50% inhibition of the hydrolytic activity of the respective enzyme.
(§5) Certain compounds of Formula I have also been assayed with MMP-1 full-length, MMP-3 catalytic domain, MMP-7 full-length, MMP-8 full-length, MMP-9 full-length, MMP-12 catalytic domain, MMP-14 catalytic domain, and MMP-17 catalytic domain. […] In Biological Table 2, the compound example numbers for the Compound Examples are indicated in the column labelled “Ex. No.”

MMP-8 full-length = target: T2, MMP-8 full-length (Homo sapiens, UniProt P22894); test: Thiopeptolide substrate hydrolysis inhibition assay, MMP-8 full-length; type: biochemical; details: full-length enzyme; read-out: MMP-8FL IC50
T2 construct: MMP-7 full-length, MMP-8 full-length, MMP-9 full-length
T2 sequence (P22894 101-467): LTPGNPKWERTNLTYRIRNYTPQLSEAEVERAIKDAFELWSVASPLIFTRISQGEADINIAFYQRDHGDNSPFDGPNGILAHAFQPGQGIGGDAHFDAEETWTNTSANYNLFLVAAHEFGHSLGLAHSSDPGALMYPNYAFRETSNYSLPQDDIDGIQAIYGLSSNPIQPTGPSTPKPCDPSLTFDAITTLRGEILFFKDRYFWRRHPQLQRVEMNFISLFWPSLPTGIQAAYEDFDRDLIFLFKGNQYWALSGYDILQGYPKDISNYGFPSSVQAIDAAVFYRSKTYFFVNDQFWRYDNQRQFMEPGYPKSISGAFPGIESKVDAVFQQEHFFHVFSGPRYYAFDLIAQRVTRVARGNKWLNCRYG
Text: as §1, §2, §3, §4, §5

MMP-14 catalytic domain = target: T3, MMP-14 catalytic domain (Homo sapiens, UniProt P50281); test: Thiopeptolide substrate hydrolysis inhibition assay, MMP-14 catalytic domain; type: biochemical; details: read-out: MMP-14CD IC50
T3 construct: MMP-14 catalytic domain, and MMP-17 catalytic domain
Text: as §1, §2, §3, §4, §5

MMP-13 catalytic domain = MMP-13 catalytic domain (Homo sapiens, UniProt P45452); test: Thiopeptolide substrate hydrolysis inhibition assay, MMP-13 catalytic domain; type: biochemical; details: MMP-13 catalytic domain; read-out: MMP-13CD IC50
Text: The methods described below for the inhibition of MMP-13 may also be adapted and used to determine the ability of the compounds of Formula I to inhibit other matrix metalloproteases such as MMP-1, MMP-2, MMP-3, MMP-7, MMP-8, MMP-9, MMP-12, MMP-14, MMP-17, and the like.
Thiopeptolide substrates show virtually no decomposition or hydrolysis at or below neutral pH in the absence of a matrix metalloproteinase enzyme. A typical thiopeptolide substrate commonly utilized for assays is Ac-Pro-Leu-Gly-thioester-Leu-Leu-Gly-OEt. A 100 μL assay mixture will contain 50 mM of N-2-hydroxyethylpiperazine-N′-2-ethanesulfonic acid buffer (“HEPES,” pH 7.0), 10 mM CaCl2, 100 μM thiopeptolide substrate, and 1 mM 5,5′-dithio-bis-(2-nitro-benzoic acid) (DTNB). […] Assays are carried out with and without matrix metalloproteinase inhibitor compounds, and the amount of hydrolysis is compared for a determination of inhibitory activity of the test compounds.

MMP-17 catalytic domain = target: T4, MMP-17 catalytic domain (Homo sapiens, UniProt Q9ULZ9); test: Thiopeptolide substrate hydrolysis inhibition assay, MMP-17 catalytic domain; type: biochemical; details: read-out: MMP-17 CD IC50
T4 construct: MMP-14 catalytic domain, and MMP-17 catalytic domain
T4 sequence (Q9ULZ9 126-295 limits assumed): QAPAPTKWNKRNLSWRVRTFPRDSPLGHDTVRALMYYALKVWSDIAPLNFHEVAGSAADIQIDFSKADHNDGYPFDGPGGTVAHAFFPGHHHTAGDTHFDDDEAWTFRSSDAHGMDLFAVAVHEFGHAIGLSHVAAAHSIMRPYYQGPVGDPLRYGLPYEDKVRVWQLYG
Text: as §1, §2, §3, §4, §5

COc1ccc(CNC(=O)c2cc3c(=O)n(Cc4ccc(C(=O)O)cc4)cnc3cn2)cc1 [Compound Example 1, 4-[6-(4-methoxy-benzylcarbamoyl)-4-oxo-4H-pyrido[3,4-d]pyrimidin-3-ylmethyl]-benzoic acid]
clearance ([1]; rat, blood, Sprague-Dawley rats, single 5 mg/kg intravenous dose, read-out: IV CL): 7.1 mL/min/kg | half-life ([1]; rat, blood, Sprague-Dawley rats, single 5 mg/kg intravenous dose, read-out: IV T1/2 (converted)): 126 min | PO AUC (ng/hr/mL) ([1]; rats, single 5 mg/kg oral dose): 3,750 ng/hr/mL | IC50 (MMP-1 full-length): > 100 µM | IC50 (MMP-8 full-length): > 100 µM | IC50 (MMP-14 catalytic domain): > 100 µM | IC50 (MMP-13 catalytic domain): 7.7 nM | IC50 (MMP-17 catalytic domain): > 100 µM

Reference: patent publication US20050085447A1, “Pyrido[3,4-d]pyrimidine derivatives as matrix metalloproteinase-13 inhibitors” (Warner-Lambert Company LLC, priority 2003, published 2005)
